Measurements: patent publication US20030017519A1, “Electrochemical enzyme assay” (priority 1993, published 2003)

Experiment: Electrochemical characteristics of β-galactosidase labeled substrates and their cleaved labels
Type: physicochemical
Settings: for Reversible?: electrochemical reversibility, per oxidation potential listed; for Elec. Active?: scanned in the potential range −0.6 V to +1.0 V vs. Ag/AgCl
Text: When cleaved from the substrate, the label should be electrochemically active in this same potential range.

Structure (SMILES): OCCOCCOCCOc1ccc(O[C@@H]2O[C@H](CO)[C@H](O)[C@H](O)[C@H]2O)c2ccccc12
- Reversible?: no, no
- Elec. Active?: yes

Structure (SMILES): COc1ccc(O[C@@H]2O[C@H](CO)[C@H](O)[C@H](O)[C@H]2O)c2ccccc12
- Reversible?: quasi, no
- Elec. Active?: yes

Structure (SMILES): OCCOCCOCCOc1ccc(O)c2ccccc12 [4-(1,4,7, 10-tetraoxadecyl)-1-naphthol]
- Reversible?: no
- Elec. Active?: yes

Structure (SMILES): COc1ccc(O)c2ccccc12 [4-methoxy-1-naphthol]
- Reversible?: quasi, no
- Elec. Active?: yes

Structure (SMILES): Nc1ccc(O[C@@H]2O[C@H](CO)[C@H](O)[C@H](O)[C@H]2O)cc1 [p-aminophenyl-β-D-galactyopyranoside, p-aminophenyl-β-D-galactopyranoside]
- Elec. Active?: no

Structure (SMILES): O=c1ccc2nc3ccc(O[C@@H]4O[C@H](CO)[C@H](O)[C@H](O)[C@H]4O)cc3oc-2c1 [resorufin-β-D-galactopyranoside]
- electrochemical activity at the measurement potential (before and after cleavage): electrochemically active at the measurement potential before and after cleavage
- Reversible?: Yes
- Elec. Active?: yes
- Eox vs. Ag/AGCL: −0.100 V

Structure (SMILES): O=c1ccc2nc3ccc(O)cc3oc-2c1 [resorufin]
- Reversible?: yes
- Elec. Active?: yes
- Eox vs. Ag/AGCL: −0.100 V
